{
  "source": "paper PMC10910545",
  "about": "“The crystal structure of mycothiol disulfide reductase (Mtr) provides mechanistic insight into the specific low-molecular-weight thiol reductase activity of Actinobacteria” (Acta Crystallographica. Section D, Structural Biology, 2024)",
  "key": {"[1]": {"target": "T1, Mtr Ms (mycothiol disulfide reductase) (Mycolicibacterium smegmatis, UniProt A0QVL0)", "T1 construct": "gene MSMEG_2611; full-length, 461 residues, pET-22b(+) NdeI/XhoI, E. coli BL21(DE3); homodimer about 100 kDa", "T1 sequence (A0QVL0 1-461)": "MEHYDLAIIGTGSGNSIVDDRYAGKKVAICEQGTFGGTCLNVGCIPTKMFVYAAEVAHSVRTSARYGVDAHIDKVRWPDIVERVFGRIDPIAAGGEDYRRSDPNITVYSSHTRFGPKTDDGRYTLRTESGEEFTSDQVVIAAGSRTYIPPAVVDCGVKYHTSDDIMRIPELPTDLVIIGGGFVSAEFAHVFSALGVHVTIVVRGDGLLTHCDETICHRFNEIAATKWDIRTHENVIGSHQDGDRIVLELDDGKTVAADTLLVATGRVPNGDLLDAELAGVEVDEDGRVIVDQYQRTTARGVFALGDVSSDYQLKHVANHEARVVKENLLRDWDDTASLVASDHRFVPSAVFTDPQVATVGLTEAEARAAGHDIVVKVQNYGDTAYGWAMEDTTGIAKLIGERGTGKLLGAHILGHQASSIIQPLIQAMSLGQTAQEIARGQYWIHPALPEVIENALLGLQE", "assay": "UV-Vis A465/A280 ratio and yellow crystals", "type": "binding", "settings": "copurified cofactor; FAD not modelled in the 4.7 A structure"}, "[2]": {"target": "T2, Mtr Re (mycothiol disulfide reductase) (Rhodococcus erythropolis, UniProt C0ZY75)", "T2 construct": "full-length, 458 residues, pET-22b(+) NdeI/XhoI, E. coli BL21(DE3); homodimer about 100 kDa", "T2 sequence (C0ZY75 entry or part of it)": "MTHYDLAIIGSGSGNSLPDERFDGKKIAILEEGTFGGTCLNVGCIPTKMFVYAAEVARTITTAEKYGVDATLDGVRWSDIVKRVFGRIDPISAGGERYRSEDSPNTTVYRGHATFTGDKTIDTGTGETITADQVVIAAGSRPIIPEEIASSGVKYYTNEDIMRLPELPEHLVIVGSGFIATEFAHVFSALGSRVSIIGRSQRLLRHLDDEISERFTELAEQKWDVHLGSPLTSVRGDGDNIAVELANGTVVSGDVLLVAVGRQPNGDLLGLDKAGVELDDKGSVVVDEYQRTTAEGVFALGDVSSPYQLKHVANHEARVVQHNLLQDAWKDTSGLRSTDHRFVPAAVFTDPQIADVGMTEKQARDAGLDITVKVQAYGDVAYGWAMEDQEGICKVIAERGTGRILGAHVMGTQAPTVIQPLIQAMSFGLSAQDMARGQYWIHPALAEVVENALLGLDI", "assay": "X-ray crystal structure, […] A", "type": "binding", "settings": "copurified cofactor, one FAD per monomer; redox-active Cys39-Cys44 on si face"}},
  "data": [
    {"compound": "Cc1cc2nc3c(=O)[nH]c(=O)nc-3n(C[C@H](O)[C@H](O)[C@H](O)COP(=O)(O)OP(=O)(O)OC[C@H]3O[C@@H](n4cnc5c(N)ncnc54)[C@H](O)[C@@H]3O)c2cc1C", "note": "[FAD]", "values": [
      {"measurement": "UV-Vis A465/A280 ratio and yellow crystals", "setting": "[1]", "result": "support the presence of FAD in both proteins"},
      {"measurement": "X-ray crystal structure, 2.9 A", "setting": "[2]", "result": "In Mtr Re , both monomers show strong density for the FAD cofactor"}
    ]}
  ]
}
